Data on 11 molecules can be found in US9670201B2, “Methyl- and trifluoromethyl-substituted pyrrolopyridine modulators of RORC2 and methods of use thereof” (Pfizer Inc., priority 2014, dated 2017).

The experiment deals with RORC2 ligand binding domain (6-His-RORC2 LBD) (Homo sapiens (Human), UniProt P51449). As to the kind of experiment: Co-activator recruitment by TR-FRET. It counts as biochemical. Particulars: 6-His-RORC2 LBD / SRC1-2 coactivator peptide, Table 1. (In general: In TR-FRET formats the signal depends on donor and acceptor labels being close together.)
Sequence of RORC2 ligand binding domain (6-His-RORC2 LBD) (P51449 269-508): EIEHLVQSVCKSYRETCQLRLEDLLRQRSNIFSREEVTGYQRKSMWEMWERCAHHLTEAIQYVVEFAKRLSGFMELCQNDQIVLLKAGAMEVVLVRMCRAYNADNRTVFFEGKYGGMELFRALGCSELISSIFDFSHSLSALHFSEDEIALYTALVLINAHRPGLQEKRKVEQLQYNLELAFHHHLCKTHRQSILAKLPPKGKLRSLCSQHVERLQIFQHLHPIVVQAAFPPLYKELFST
A word on the IC50: it is the concentration that inhibits the measured activity by half. Lower therefore signals higher potency. `COc1ccc(C(=O)Nc2cnc3c(c(C4[C@@H]5CC[C@H]4CN(C(=O)C4CCCC4)C5)cn3C)c2C)cc1C#N` (stereo partly drawn) [Example 99, 3-cyano-N-(3-((1R,5S,8r)-3-(cyclopentanecarbonyl)-3-azabicyclo[3.2.1]octan-8-yl)-1,4-dimethyl-1H-pyrrolo[2,3-b]pyridin-5-yl)-4-methoxybenzamide] showed an IC50 of 21.1 nM.

`Cc1c(NC(=O)c2cccc(C#N)c2)cnc2c1c([C@H]1C[C@H](C)N(C(=O)C3CCCC3)C[C@H]1C)cn2C` (relative stereo) [Example 97, rel-3-cyano-N-(3-((2S,4S,5S)-1-(cyclopentanecarbonyl)-2,5-dimethylpiperidin-4-yl)-1,4-dimethyl-1H-pyrrolo[2,3-b]pyridin-5-yl)benzamide] yielded an IC50 of 18.6 nM.

In turn, `Cn1cc(C2CCN(C(=O)[C@H]3C[C@H]4CCCC[C@H]4C3)CC2)c2c(C(F)(F)F)c(NC(=O)c3cccc(C#N)c3)cnc21` [Example 16, 3-cyano-N-(1-methyl-3-(1-((2r,3aR,7aS)-octahydro-1H-indene-2-carbonyl)piperidin-4-yl)-4-(trifluoromethyl)-1H-pyrrolo[2,3-b]pyridin-5-yl)benzamide] returned an IC50 of 10.2 nM.

`Cc1c(NC(=O)c2cccc(C#N)c2)cnc2c1c([C@@H]1CCN(C(=O)C(C)C)[C@@H](C)C1)cn2C` [Example 113, 3-cyano-N-(3-((2S,4R)-1-isobutyryl-2-methylpiperidin-4-yl)-1,4-dimethyl-1H-pyrrolo[2,3-b]pyridin-5-yl)benzamide] came in with an IC50 of 20.2 nM.

Take `CC(C)C(=O)N1CCC(c2cn(C)c3ncc(NC(=O)c4ccc(F)c(Cl)c4)c(C(F)(F)F)c23)CC1` [Example 12, 3-chloro-4-fluoro-N-(3-(1-isobutyrylpiperidin-4-yl)-1-methyl-4-(trifluoromethyl)-1H-pyrrolo[2,3-b]pyridin-5-yl)benzamide]: the 50% inhibitory concentration (IC50) turned out to be 11.8 nM.

Take `Cc1c(NC(=O)c2cccc(C#N)c2)cnc2c1c(C1CCN(C(=O)[C@H](C)C3CCCC3)CC1)cn2C` [Example 51, (R)-3-cyano-N-(3-(1-(2-cyclopentylpropanoyl)piperidin-4-yl)-1,4-dimethyl-1H-pyrrolo[2,3-b]pyridin-5-yl)benzamide]: the half-inhibitory concentration (IC50) was 6.9 nM.

For the molecule `Cc1c(NC(=O)c2cccc(C#N)c2)cnc2c1c(C1CCN(C(=O)[C@@H]3CCC[C@H]3C)CC1)cn2C` (single isomer, unassigned) [Example 47], the IC50 amounted to 10.1 nM.

With `Cc1c(NC(=O)c2cc(O)cc(C#N)c2)cnc2c1c([C@@H]1CCN(C(=O)C3CCCC3)C(C)(C)C1)cn2C` [Example 64, (R)-3-cyano-N-(3-(1-(cyclopentanecarbonyl)-2,2-dimethylpiperidin-4-yl)-1,4-dimethyl-1H-pyrrolo[2,3-b]pyridin-5-yl)-5-hydroxybenzamide], the IC50 came to 41.8 nM.

On to `Cn1cc(C2CCN(C(=O)CC3CC3)CC2)c2c(C(F)(F)F)c(NC(=O)c3cccc(C#N)c3)cnc21` [Example 24, 3-cyano-N-(3-(1-(2-cyclopropylacetyl)piperidin-4-yl)-1-methyl-4-(trifluoromethyl)-1H-pyrrolo[2,3-b]pyridin-5-yl)benzamide], for which the concentration for half-maximal inhibition (IC50) amounted to 5.8 nM.

Molecule `CC(C(=O)N1CCC(c2cn(C)c3ncc(NC(=O)c4cccc(C#N)c4)c(C(F)(F)F)c23)CC1)C1CC1` (racemic) [Example 25, Rac-3-cyano-N-(3-(1-(2-cyclopropylpropanoyl)piperidin-4-yl)-1-methyl-4-(trifluoromethyl)-1H-pyrrolo[2,3-b]pyridin-5-yl)benzamide] yielded an IC50 of 5.8 nM.

In the case of `Cc1c(NC(=O)c2cccc(C#N)c2)cnc2c1c(C1CCN(C(=O)c3cccc4c3CCC4)CC1)cn2C` [Example 34, 3-cyano-N-(3-(1-(2,3-dihydro-1H-indene-4-carbonyl)piperidin-4-yl)-1,4-dimethyl-1H-pyrrolo[2,3-b]pyridin-5-yl)benzamide], the IC50 is 5.7 nM.
